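Interpolation was linear, between the two tested concentrations surrounding the appropriate level; five concentrations were tested over 48 hours in 96-well plates. GI50: concentration for 50% inhibition of growth.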 Active and inactive are the calls of the source. No stated cut-off is given here; in the data, active = GI50 up to about 1.1 µM and inactive = higher.
Tests used:
Assay in all cases: NCI tumour cell line growth inhibition, 48 h
UACC-62 = system: UACC-62
HL-60 = system: HL-60
TK-10 = system: TK-10
MDA-N = system: MDA-N
HOP-92 = system: HOP-92
SF-295 = system: SF-295
RPMI-8226 = system: RPMI-8226
MCF7 = system: MCF7
OVCAR-4 = system: OVCAR-4
EKVX = system: EKVX
SF-539 = system: SF-539
NCI-H226 = system: NCI-H226
ACHN = system: ACHN
K562 = system: K562
A498 = system: A498
NCI-H522 = system: NCI-H522
A549 = system: A549
KM12 = system: KM12
BT-549 = system: BT-549
DU-145 = system: DU-145
HCC 2998 = system: HCC 2998
LOX IMVI = system: LOX IMVI
T47D = system: T47D
SR = system: SR
IGROV-1 = system: IGROV-1
MOLT-4 = system: MOLT-4
OVCAR-5 = system: OVCAR-5
MDA-MB-231 = system: MDA-MB-231
PC-3 = system: PC-3
UACC-257 = system: UACC-257
OVCAR-3 = system: OVCAR-3
SF-268 = system: SF-268
NCI-H460 = system: NCI-H460
NCI/ADR-RES = system: NCI/ADR-RES
SK-MEL-2 = system: SK-MEL-2
Hs-578T = system: Hs-578T
SK-MEL-5 = system: SK-MEL-5
SK-OV-3 = system: SK-OV-3
NCI-H23 = system: NCI-H23
786-0 = system: 786-0
COLO 205 = system: COLO 205
HOP-62 = system: HOP-62
OVCAR-8 = system: OVCAR-8
HT-29 = system: HT-29
SN12C = system: SN12C
SNB-19 = system: SNB-19
HCT-15 = system: HCT-15
SK-MEL-28 = system: SK-MEL-28
U-251 = system: U-251
CCRF-CEM = system: CCRF-CEM
UO-31 = system: UO-31
HCT-116 = system: HCT-116
MDA-MB-435 = system: MDA-MB-435
Malme-3M = system: Malme-3M
M14 = system: M14
CAKI-1 = system: CAKI-1
SW-620 = system: SW-620
RXF 393 = system: RXF 393
SNB-75 = system: SNB-75

SMILES: OC[C@]1(n2nc3ccccc3n2)OC[C@@H]1c1ccccc1
- GI50 (UACC-62): 43.3 µM (inactive)
- GI50 (HL-60): 31.4 µM (inactive)
- GI50 (TK-10): 60.4 µM (inactive)
- GI50 (MDA-N): 53.7 µM (inactive)
- GI50 (HOP-92): 44.6 µM (inactive)
- GI50 (SF-295): 83.4 µM (inactive)
- GI50 (RPMI-8226): 26.9 µM (inactive)
- GI50 (MCF7): 33.7 µM (inactive)
- GI50 (OVCAR-4): 16.9 µM (inactive)
- GI50 (EKVX): > 100 µM (inactive)
- GI50 (SF-539): 25.2 µM (inactive)
- GI50 (NCI-H226): 32.2 µM (inactive)
- GI50 (ACHN): 36.6 µM (inactive)
- GI50 (K562): 56.9 µM (inactive)
- GI50 (A498): 60.5 µM (inactive)
- GI50 (NCI-H522): 20.1 µM (inactive)
- GI50 (A549): 64.3 µM (inactive)
- GI50 (KM12): 45.6 µM (inactive)
- GI50 (BT-549): 28.8 µM (inactive)
- GI50 (DU-145): 27.5 µM (inactive)
- GI50 (HCC 2998): > 100 µM (inactive)
- GI50 (LOX IMVI): 42.5 µM (inactive)
- GI50 (T47D): 36 µM (inactive)
- GI50 (SR): 32.2 µM (inactive)
- GI50 (IGROV-1): 37.2 µM (inactive)
- GI50 (MOLT-4): 33.7 µM (inactive)
- GI50 (OVCAR-5): 91.4 µM (inactive)
- GI50 (MDA-MB-231): 74.3 µM (inactive)
- GI50 (PC-3): 70 µM (inactive)
- GI50 (UACC-257): 93.8 µM (inactive)
- GI50 (OVCAR-3): 21.7 µM (inactive)
- GI50 (SF-268): 30.8 µM (inactive)
- GI50 (NCI-H460): 76.2 µM (inactive)
- GI50 (NCI/ADR-RES): 57.3 µM (inactive)
- GI50 (SK-MEL-2): 34 µM (inactive)
- GI50 (Hs-578T): 56 µM (inactive)
- GI50 (SK-MEL-5): 83.2 µM (inactive)
- GI50 (SK-OV-3): > 100 µM (inactive)
- GI50 (NCI-H23): 48.2 µM (inactive)
- GI50 (786-0): 34.8 µM (inactive)
- GI50 (COLO 205): 55.5 µM (inactive)
- GI50 (HOP-62): 39.3 µM (inactive)
- GI50 (OVCAR-8): 51.5 µM (inactive)
- GI50 (HT-29): 29.6 µM (inactive)
- GI50 (SN12C): 43.1 µM (inactive)
- GI50 (SNB-19): > 100 µM (inactive)
- GI50 (HCT-15): 42.1 µM
- GI50 (SK-MEL-28): 28.2 µM (inactive)
- GI50 (U-251): 48.4 µM (inactive)
- GI50 (CCRF-CEM): 36.1 µM (inactive)
- GI50 (UO-31): 95.3 µM (inactive)
- GI50 (HCT-116): 30.4 µM (inactive)
- GI50 (MDA-MB-435): 32.2 µM (inactive)
- GI50 (Malme-3M): 19.4 µM (inactive)
- GI50 (M14): 90.6 µM (inactive)
- GI50 (CAKI-1): 27.2 µM (inactive)

SMILES: CCOC(=O)NC(C(F)(F)F)(C(F)(F)F)P(=O)(OCC)OCC
- GI50 (UACC-62): 28 µM (inactive)
- GI50 (HL-60): 65.2 µM (inactive)
- GI50 (TK-10): 82 µM (inactive)
- GI50 (MDA-N): 29.2 µM (inactive)
- GI50 (HOP-92): 81.7 µM (inactive)
- GI50 (SF-295): 51.2 µM (inactive)
- GI50 (RPMI-8226): 24 µM (inactive)
- GI50 (SW-620): 17.9 µM (inactive)
- GI50 (MCF7): 75.2 µM (inactive)
- GI50 (OVCAR-4): 18.7 µM (inactive)
- GI50 (NCI-H226): 54.1 µM (inactive)
- GI50 (ACHN): 35.9 µM (inactive)
- GI50 (K562): 10.9 µM (inactive)
- GI50 (A498): 46.3 µM (inactive)
- GI50 (NCI-H522): 17.4 µM (inactive)
- GI50 (RXF 393): 11.9 µM (inactive)
- GI50 (KM12): 43.9 µM (inactive)
- GI50 (BT-549): 34 µM (inactive)
- GI50 (DU-145): > 100 µM (inactive)
- GI50 (HCC 2998): 75.2 µM (inactive)
- GI50 (LOX IMVI): 12.4 µM (inactive)
- GI50 (T47D): 42.1 µM (inactive)
- GI50 (SR): > 10 µM (inactive)
- GI50 (IGROV-1): 40.6 µM (inactive)
- GI50 (MOLT-4): 4.11 µM (inactive)
- GI50 (OVCAR-5): 57.1 µM (inactive)
- GI50 (MDA-MB-231): > 100 µM (inactive)
- GI50 (PC-3): 22.8 µM (inactive)
- GI50 (OVCAR-3): 45.2 µM (inactive)
- GI50 (SF-268): 42.6 µM (inactive)
- GI50 (NCI-H460): 31.7 µM (inactive)
- GI50 (NCI/ADR-RES): 36.7 µM (inactive)
- GI50 (Hs-578T): 16.9 µM (inactive)
- GI50 (SK-OV-3): 34.9 µM (inactive)
- GI50 (NCI-H23): 34.5 µM (inactive)
- GI50 (786-0): 45.2 µM (inactive)
- GI50 (SNB-75): 19.9 µM (inactive)
- GI50 (COLO 205): 38.6 µM (inactive)
- GI50 (HOP-62): 78.9 µM (inactive)
- GI50 (OVCAR-8): 36.6 µM (inactive)
- GI50 (HT-29): 27.5 µM (inactive)
- GI50 (SN12C): 32.8 µM (inactive)
- GI50 (SNB-19): 36.1 µM (inactive)
- GI50 (HCT-15): 28.8 µM
- GI50 (SK-MEL-28): 43.4 µM (inactive)
- GI50 (U-251): 23.3 µM (inactive)
- GI50 (CCRF-CEM): 2.71 µM (inactive)
- GI50 (UO-31): 24.3 µM (inactive)
- GI50 (HCT-116): 31 µM (inactive)
- GI50 (MDA-MB-435): 44.1 µM (inactive)
- GI50 (Malme-3M): 28.3 µM (inactive)
- GI50 (M14): 25.9 µM (inactive)

SMILES: COC(=O)c1cc(C(=CCC[C@H]2CC[C@@]3(C)C(CCC4C3CC[C@@]3(C)C4CC[C@@H]3C(C)CCCC(C)C)C2)c2cc(Cl)c(O)c(C(=O)OC)c2)cc(Cl)c1O (stereo partly specified)
- GI50 (UACC-62): > 10 µM (inactive)
- GI50 (HL-60): > 10 µM (inactive)
- GI50 (TK-10): > 10 µM (inactive)
- GI50 (MDA-N): > 10 µM (inactive)
- GI50 (HOP-92): > 10 µM (inactive)
- GI50 (SF-295): > 10 µM (inactive)
- GI50 (RPMI-8226): > 10 µM (inactive)
- GI50 (SW-620): > 10 µM (inactive)
- GI50 (MCF7): > 10 µM (inactive)
- GI50 (OVCAR-4): > 10 µM (inactive)
- GI50 (EKVX): > 10 µM (inactive)
- GI50 (SF-539): > 10 µM (inactive)
- GI50 (NCI-H226): > 10 µM (inactive)
- GI50 (ACHN): > 10 µM (inactive)
- GI50 (K562): > 10 µM (inactive)
- GI50 (NCI-H522): > 10 µM (inactive)
- GI50 (A549): > 10 µM (inactive)
- GI50 (RXF 393): > 10 µM (inactive)
- GI50 (KM12): > 10 µM (inactive)
- GI50 (BT-549): > 10 µM (inactive)
- GI50 (DU-145): > 10 µM (inactive)
- GI50 (HCC 2998): > 10 µM (inactive)
- GI50 (LOX IMVI): > 10 µM (inactive)
- GI50 (T47D): > 10 µM (inactive)
- GI50 (SR): > 10 µM (inactive)
- GI50 (IGROV-1): > 10 µM (inactive)
- GI50 (MOLT-4): > 10 µM (inactive)
- GI50 (OVCAR-5): > 10 µM (inactive)
- GI50 (MDA-MB-231): > 10 µM (inactive)
- GI50 (PC-3): > 10 µM (inactive)
- GI50 (UACC-257): > 10 µM (inactive)
- GI50 (OVCAR-3): > 10 µM (inactive)
- GI50 (SF-268): > 10 µM (inactive)
- GI50 (NCI-H460): > 10 µM (inactive)
- GI50 (NCI/ADR-RES): > 10 µM (inactive)
- GI50 (SK-MEL-2): > 10 µM (inactive)
- GI50 (Hs-578T): > 10 µM (inactive)
- GI50 (SK-MEL-5): > 10 µM (inactive)
- GI50 (SK-OV-3): > 10 µM (inactive)
- GI50 (NCI-H23): > 10 µM (inactive)
- GI50 (786-0): > 10 µM (inactive)
- GI50 (SNB-75): > 10 µM (inactive)
- GI50 (COLO 205): > 10 µM (inactive)
- GI50 (HOP-62): > 10 µM (inactive)
- GI50 (OVCAR-8): > 10 µM (inactive)
- GI50 (HT-29): > 10 µM (inactive)
- GI50 (SN12C): > 10 µM (inactive)
- GI50 (SNB-19): > 10 µM (inactive)
- GI50 (HCT-15): > 10 µM
- GI50 (SK-MEL-28): > 10 µM (inactive)
- GI50 (U-251): > 10 µM (inactive)
- GI50 (CCRF-CEM): > 10 µM (inactive)
- GI50 (UO-31): > 10 µM (inactive)
- GI50 (HCT-116): > 10 µM (inactive)
- GI50 (MDA-MB-435): > 10 µM (inactive)
- GI50 (Malme-3M): > 10 µM (inactive)
- GI50 (M14): > 10 µM (inactive)
- GI50 (CAKI-1): > 10 µM (inactive)
